This note sets out measurements from patent publication US20230113516A1, “5-AMINO-2,3-DIHYDRO-1,4-PHTHAL[…] TREATMENT OF ACUTE LUNG INJURY” (Metriopharm AG, priority 2020, published 2023).

Molecules are shown by their SMILES. Read-outs that look alike come from different tables or passages of the source.

One data set relates to PCI model of sepsis. The following applies: for survival rate after 10 days: therapeutic mode, n=6. The method, then: In the PCI (peritoneal contamination and infection) model of sepsis a human fecal suspension was injected intraperitoneally to mice (3 μl/g body weight). To all groups the antibiotic meropenem (25 mg/kg body weight) was administered 6 hours after PCI induction. At this time point all mice received also a volume loading with a 5% glucose solution. This treatment is repeated on the two consecutive days after PCI induction, at intervals of 24 hours. • Group I: control (not infected) • Group II: PCI (infected, without treatment) • Group III: PCI+2 mg/kg body weight 5-amino-2,3-dihydro-1,4-phthalazinedione sodium salt Form I • Group IV: PCI+5 mg/kg body weight 5-amino-2,3-dihydro-1,4-phthalazinedione sodium salt Form I
Starting at 8 hours after PCI induction the mice of the treatment groups were treated for two consecutive days every 8 hours with an intraperitoneal injection of 2 mg/kg body weight, respectively 5 mg/kg body weight 5-amino-2,3-dihydro-1,4-phthalazinedione sodium salt Form I. Thereupon the mice were treated for further eight days with an intraperitoneal injection of 2 mg/kg body weight, respectively 5 mg/kg body weight 5-amino-2,3-dihydro-1,4-phthalazinedione sodium salt Form I once daily. (n=6)
Herein the mice were treated with 5 mg/kg body weight 5-amino-2,3-dihydro-1,4-phthalazinedione sodium salt Form I only, but only twice, 3 hours before PCI induction and 6 hours after (n=8).
The Clinical Severity Score (CSS) was assessed daily for the mice of the prophylactic treatment group. The CSS was assessed according to Gonnert et al. (2011) J Surg Res 170: e123-134.

For data set [1], the system named is murine peritoneal macrophages. From the text:
Female C57Bl/6 mice (6-8 weeks old) were purchased from Envigo (San Petro al Natisone, Udine, Italy) and housed under standard laboratory conditions (specific-pathogen free). Food and water were applied ad libitum. Animal handling and the study protocol were in accordance with international guidelines.
Four days after i.p. injection of 3% thioglycolate medium (w/v in distilled water; St Louis, Mo. USA), murine peritoneal macrophages (PM) were isolated according to the protocol of Zhang et al. (Curr. Protoc. Immunol. 2008, Chapter 14, Unit 14.1).
Briefly, cells were collected by injecting 10 ml of complete medium (DMEM/F12 Medium containing 10% fetal calf serum) into the peritoneal cavity using a 30 cc syringe attached to a 19-G needle, followed by slowly withdrawing the lavage fluid. Cells were washed twice in PBS (phosphate buffered saline) and counted.
One hour prior to LPS (lipopolysaccharide) stimulation (0.1 μg/ml; Escherichia coli […], St Louis, Mo. USA), cells (0.5×10^6 cells/well in 24-well plates with 1 ml total volume of medium) were pre-treated with scalar concentrations of 5-amino-2,3-dihydro-1,4-phthalazinedione sodium salt (ranging from 1 mM to 0.025 mM). Two independent experiments (each using cells pooled from three mice) were performed and secreted cytokine levels were determined 24, 48 and 72 h after LPS stimulation using ELISA technique.

The subject of a further data set is Vero B4 cells. The following applies: antivirally effective concentrations; observation period of 3 days; tested 0.25-4 mM. An excerpt: Herein viable cells with an intact mitochondrial succinate-tetrazolium dehydrogenase system effect an enzymatic conversion of the feebly red tetrazolium salt WST-1 (4-[3-(4-iodophenyl)-2-(4-nitrophenyl)-2H-5-tetrazolio]-1,3 benzene disulfonate) into dark red formazan. This color change can be measured photometrically in a spectrophotometer. Thus, the WST assay is a very sensitive method for measuring the toxicity of substances on the cell metabolism. The value for untreated cells was set to 100%.
The value for untreated cells was set to 100%. 1 μM staurosporine (an indolocarbazole compound from Streptomyces staurosporeus, an apoptosis inducer) was used as positive control.

The test system of data set [2] is 3-nitrotyrosine formation in the lung parenchyma. The following applies: for 3-nitrotyrosine stained surface area, mean ± SEM: cigarette smoke alone 3.07, room air 0.24. The protocol:
C57BL/6J mice (n=25, 5 per group; male/female, 3-6 months, 20-30 g; Charles River GmbH, Sulzfeld, Germany) were anesthetized with a ketamine (100 mg/kg body weight) and xylazine (20 mg/kg body weight) intraperitoneal injection (Ceva Tiergesundheit GmbH, Dusseldorf, Germany) containing heparin (50 I.E. heparin/g body weight; Ratiopharm GmbH, Ulm, Germany). The lungs and the heart were removed from the chest cavity and placed on the ILU system (see FIGS. 1A and 1B). Lungs were ventilated in an isolated chamber using normoxic gas (21% O2, 5% CO2, 74% N2; 150 breaths per minute at the PEEP (positive end-expiratory pressure) of 3 cm H2O) and perfused with a modified Krebs-Henseleit buffer (120.0 mM NaCl, 4.3 mM KCl, 1.1 mM KH2PO4, 2.4 mM CaCl2, 1.3 mM MgCl2, 13.14 mM glucose, 0.25 mM hydroxyethyl starch 200000/0.5, 25.0 mM NaHCO3 adjusted to a constant pH range of […] L-arginine; Serag-Wissner GmbH & Co. KG, Naila, Germany) at a temperature of 37° C. Lung weight, right and left ventricle pressure, as well as ventilatory pressure were monitored and recorded during the whole experimental procedure. After 5-10 minutes, when the lung was properly flushed and all the parameters were stable, 5-amino-2,3-dihydro-1,4-phthalazinedione sodium salt was applied by adding 150 μl of a stock solution to 15 ml of the circulating perfusion buffer. The substance was applied 10 minutes prior to the first cigarette smoke application. Cigarette smoke was applied via trachea while lung is perfused with the buffer containing 5-amino-2,3-dihydro-1,4-phthalazinedione sodium salt. Cigarette smoke was prepared freshly before each application, by burning one cigarette (research cigarettes 3R4F, University of Kentucky, USA) in one minute using normoxic gas at the flow of 1 l/min and collected in a 1 l glass bottle containing 5 g silica gel for removing the moist from the cigarette smoke. 50 ml of the cigarette smoke were taken via a syringe and applied to the lung via trachea (FIG. 4A) in deep breaths (periodic inflation for 3-4 s) over a period of 5 min. The application was done manually while carefully monitoring the inspiratory pressure to avoid damage of the lung. The cigarette smoke application was repeated three times with a 1 hour break in-between.
5-amino-2,3-dihydro-1,4-phthalazinedione sodium salt Form I was dissolved in water for injection (vehicle) at the required concentrations described above. Stock solutions were prepared in water for injection. Further 1:100 dilutions were made with modified Krebs-Henseleit buffer (see above). Stock solutions were stored at −70° C. in appropriate aliquots. The required amount of stock solution was thawed, and the corresponding working solution was prepared for immediate use.
One hour after the third cigarette smoke application lungs were removed from the system and fixed by inflating with formalin solution (via trachea) at the pressure of 12-15 cm H2O for two hours at room temperature. Afterwards the fixed lungs were kept in PBS (phosphate buffer saline, see below) at +4° C. until further dehydration and paraffin embedding. Paraffin blocks were cut 3 μm thick, dried overnight at 37° C. and stained for 3-nitrotyrosine (3-NT).
The immunohistochemical staining of 3-nitrotyrosine was carried out according to the following protocol:
Stained histological samples were blindly analysed by light microscope. 3-nitrotyrosine levels in the lung parenchyma were quantified as a percentage of stained surface area. Quantification was performed under 200× magnification in 5-10 randomly selected fields with exclusion of large bronchi and vessels. One-Way ANOVA statistical test with Bonferroni correction was performed for comparison between groups. Differences with p<0.05 were considered statistically significant.

Where [3] appears, read: 1 mM, pre-treatment 1 h prior to LPS (0.1 μg/ml), C57Bl/6 PMs.

`Nc1cccc2c(=O)[nH][nH]c(=O)c12.[Na]` [5-amino-2,3-dihydro-1,4-phthalazinedione sodium salt] returned a survival rate in the data set with PCI model of sepsis (prophylactic mode, 5 mg/kg body weight, 3 hours before and 6 hours after PCI induction, Group IV, n=8) of 100%. Moreover, the “recovery (Clinical Severity Score) versus untreated group” value in the data set with PCI model of sepsis (prophylactic mode, 5 mg/kg body weight, in particular after Day 4) is “recovered clearly more quickly”. The “Clinical Severity Score (CSS) versus untreated group” value with PCI model of sepsis (prophylactic mode, 5 mg/kg body weight, surviving animals) is “less strongly diseased”. The “survival rate after 10 days” value in the data set with PCI model of sepsis (2 mg/kg body weight i.p., Group III) is recorded as 50%; in the data set on PCI model of sepsis (5 mg/kg body weight i.p., Group IV), 83%. Besides, in the data set on SARS-CoV-2, the “SARS-CoV-2 nucleocapsid protein (Western Blot)” value is listed as “clear reduction”. The “generation of SARS-CoV-2 proteins (densitometric evaluation)” value in the data set with SARS-CoV-2 is on record as “inhibited dose-dependently”. Also, the “reduction of IL-1-beta level” value in data set [1] (setting [3]) is on record as approximately 50%. Moreover, in data set [1] (setting [3]), the “reduction of IL-6 level” value is recorded as approximately 80%. Moreover, the “reduction of IL-12 level” value in data set [1] (setting [3]) is approximately 60%. Besides, in data set [1] (setting [3]), the “reduction of TNF-alpha level” value is listed as “about 40%”. In addition, in data set [1] (Balb/c, six concentrations from 1 mM to 0.25 mM, data not shown), the “cytokine reduction in PMs of a second mouse strain” value was “clear dose-dependency”. Further, the “cytokine secretion of unstimulated murine PMs” value in data set [1] (no LPS, data not shown) is recorded as “did not affect”. For the same molecule, the “toxic effect (cell viability, WST assay)” value in the data set with Vero B4 cells was “does not display any significant toxic effect”. Further, the entries for the “cigarette smoke induced 3-nitrotyrosine formation (in words)” value in data set [2] (0.5 mM in perfusion buffer), in data set [2] (1 mM in perfusion buffer) and in data set [2] (2 mM in perfusion buffer) were “moderate effect”, “almost completely abolished” and “almost completely abolished”, respectively. The “3-nitrotyrosine stained surface area, mean ± SEM” value stood at 2.24 ± 0.28 % area in data set [2] (cigarette smoke + 0.5 mM in perfusion buffer (group C)), 0.72 ± 0.26 % area in data set [2] (cigarette smoke + 1 mM in perfusion buffer (group D)) and 0.37 ± 0.13 % area in data set [2] (cigarette smoke + 2 mM in perfusion buffer (group E)).
